In PubChem BioAssay (NCI):
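Assay format: 96-well plates, 48-hour exposure. TGI: total growth inhibition.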

Legend:
Test in all cases: growth of human tumour cells (NCI), 48 h
SK-MEL-5 melanoma = tested on: SK-MEL-5 melanoma
HOP-62 NSCLC = tested on: HOP-62 NSCLC
DU-145 prostate = tested on: DU-145 prostate
MDA-MB-435 = tested on: MDA-MB-435
OVCAR-5 ovarian = tested on: OVCAR-5 ovarian
K-562 leukemia = tested on: K-562 leukemia
NCI-H522 lung = tested on: NCI-H522 lung
MALME-3M melanoma = tested on: MALME-3M melanoma
ACHN renal = tested on: ACHN renal
SR leukemia = tested on: SR leukemia
A498 renal = tested on: A498 renal
NCI-H460 lung = tested on: NCI-H460 lung
MDA-N = tested on: MDA-N
HCC-2998 colon = tested on: HCC-2998 colon
COLO 205 colon = tested on: COLO 205 colon
SK-OV-3 ovarian = tested on: SK-OV-3 ovarian
PC-3 prostate = tested on: PC-3 prostate
MCF7 breast = tested on: MCF7 breast
EKVX NSCLC = tested on: EKVX NSCLC
HCT-116 colon = tested on: HCT-116 colon
786-0 renal = tested on: 786-0 renal
A549 NSCLC = tested on: A549 NSCLC
CCRF-CEM leukemia = tested on: CCRF-CEM leukemia
OVCAR-4 ovarian = tested on: OVCAR-4 ovarian
RXF 393 renal = tested on: RXF 393 renal
UO-31 renal = tested on: UO-31 renal
SF-295 CNS = tested on: SF-295 CNS
T-47D breast = tested on: T-47D breast
SK-MEL-28 melanoma = tested on: SK-MEL-28 melanoma
NCI/ADR-RES ovarian = tested on: NCI/ADR-RES ovarian
M14 melanoma = tested on: M14 melanoma
HS 578T breast = tested on: HS 578T breast
SN12C renal = tested on: SN12C renal
CAKI-1 renal = tested on: CAKI-1 renal
UACC-62 melanoma = tested on: UACC-62 melanoma
IGROV1 ovarian = tested on: IGROV1 ovarian
HCT-15 colon = tested on: HCT-15 colon
NCI-H226 lung = tested on: NCI-H226 lung
SW-620 colon = tested on: SW-620 colon
SK-MEL-2 melanoma = tested on: SK-MEL-2 melanoma
MDA-MB-231 breast = tested on: MDA-MB-231 breast
UACC-257 melanoma = tested on: UACC-257 melanoma
OVCAR-8 ovarian = tested on: OVCAR-8 ovarian
RPMI-8226 leukemia = tested on: RPMI-8226 leukemia
U251 CNS = tested on: U251 CNS
MOLT-4 leukemia = tested on: MOLT-4 leukemia
SNB-75 CNS = tested on: SNB-75 CNS
SF-268 CNS = tested on: SF-268 CNS
KM12 colon = tested on: KM12 colon
LOX IMVI melanoma = tested on: LOX IMVI melanoma
SNB-19 CNS = tested on: SNB-19 CNS
BT-549 breast = tested on: BT-549 breast
TK-10 renal = tested on: TK-10 renal
OVCAR-3 ovarian = tested on: OVCAR-3 ovarian
HT29 colon = tested on: HT29 colon
HL-60(TB) leukemia = tested on: HL-60(TB) leukemia
HOP-92 NSCLC = tested on: HOP-92 NSCLC
SF-539 CNS = tested on: SF-539 CNS
NCI-H23 lung = tested on: NCI-H23 lung

SMILES: Cc1ccc2c(c1)C(=S)N1CSCC1c1nncn1-2 (centres undefined)
- TGI (SK-MEL-5 melanoma): > 100 µM
- TGI (HOP-62 NSCLC): > 100 µM
- TGI (DU-145 prostate): > 100 µM
- TGI (MDA-MB-435): > 100 µM
- TGI (OVCAR-5 ovarian): > 100 µM
- TGI (K-562 leukemia): > 100 µM
- TGI (NCI-H522 lung): > 100 µM
- TGI (MALME-3M melanoma): > 100 µM
- TGI (ACHN renal): > 100 µM
- TGI (SR leukemia): > 100 µM
- TGI (A498 renal): > 100 µM
- TGI (NCI-H460 lung): > 100 µM
- TGI (MDA-N): > 100 µM
- TGI (HCC-2998 colon): > 100 µM
- TGI (COLO 205 colon): > 100 µM
- TGI (SK-OV-3 ovarian): > 100 µM
- TGI (PC-3 prostate): > 100 µM
- TGI (MCF7 breast): > 100 µM
- TGI (EKVX NSCLC): > 100 µM
- TGI (HCT-116 colon): > 100 µM
- TGI (786-0 renal): > 100 µM
- TGI (A549 NSCLC): > 100 µM
- TGI (CCRF-CEM leukemia): > 100 µM
- TGI (OVCAR-4 ovarian): > 100 µM
- TGI (RXF 393 renal): > 100 µM
- TGI (UO-31 renal): > 100 µM
- TGI (SF-295 CNS): > 100 µM
- TGI (T-47D breast): > 100 µM
- TGI (SK-MEL-28 melanoma): > 100 µM
- TGI (NCI/ADR-RES ovarian): > 100 µM
- TGI (M14 melanoma): > 100 µM
- TGI (HS 578T breast): > 100 µM
- TGI (SN12C renal): > 100 µM
- TGI (CAKI-1 renal): > 100 µM
- TGI (UACC-62 melanoma): > 100 µM
- TGI (IGROV1 ovarian): > 100 µM
- TGI (HCT-15 colon): > 100 µM
- TGI (NCI-H226 lung): > 100 µM
- TGI (SW-620 colon): > 100 µM
- TGI (SK-MEL-2 melanoma): > 100 µM
- TGI (MDA-MB-231 breast): > 100 µM
- TGI (UACC-257 melanoma): > 100 µM
- TGI (OVCAR-8 ovarian): > 100 µM
- TGI (RPMI-8226 leukemia): > 100 µM
- TGI (U251 CNS): > 100 µM
- TGI (MOLT-4 leukemia): > 100 µM
- TGI (SNB-75 CNS): > 100 µM
- TGI (SF-268 CNS): > 100 µM
- TGI (KM12 colon): > 100 µM
- TGI (LOX IMVI melanoma): > 100 µM
- TGI (SNB-19 CNS): > 100 µM
- TGI (BT-549 breast): > 100 µM
- TGI (TK-10 renal): > 100 µM
- TGI (OVCAR-3 ovarian): > 100 µM
- TGI (HT29 colon): > 100 µM

SMILES: C[C@H]1[C@H]2[C@H]3CC[C@@H]4[C@@]5(C)CC[C@H](O)C(C)(C)[C@@H]5CC[C@@]4(C)[C@]3(C)C[C@H](O)[C@@]2(C)C[C@H]2O[C@]21C
- TGI (SK-MEL-5 melanoma): 42.6 µM
- TGI (HOP-62 NSCLC): 57.7 µM
- TGI (HL-60(TB) leukemia): > 100 µM
- TGI (DU-145 prostate): 31.5 µM
- TGI (MDA-MB-435): 46 µM
- TGI (OVCAR-5 ovarian): 58.4 µM
- TGI (NCI-H522 lung): 48.9 µM
- TGI (MALME-3M melanoma): 39.6 µM
- TGI (ACHN renal): 31.1 µM
- TGI (A498 renal): 38.7 µM
- TGI (NCI-H460 lung): 40.1 µM
- TGI (MDA-N): 46.5 µM
- TGI (HCC-2998 colon): 37.4 µM
- TGI (COLO 205 colon): 58.7 µM
- TGI (SK-OV-3 ovarian): 39.3 µM
- TGI (PC-3 prostate): 27.1 µM
- TGI (MCF7 breast): 42.3 µM
- TGI (EKVX NSCLC): 73.9 µM
- TGI (HCT-116 colon): 36.3 µM
- TGI (786-0 renal): 45.1 µM
- TGI (A549 NSCLC): 41.7 µM
- TGI (CCRF-CEM leukemia): > 100 µM
- TGI (OVCAR-4 ovarian): > 100 µM
- TGI (RXF 393 renal): 35.1 µM
- TGI (SF-295 CNS): 37.4 µM
- TGI (HOP-92 NSCLC): 56.2 µM
- TGI (T-47D breast): 46.8 µM
- TGI (SK-MEL-28 melanoma): 36.9 µM
- TGI (SF-539 CNS): 39 µM
- TGI (NCI/ADR-RES ovarian): 51.8 µM
- TGI (M14 melanoma): 73.6 µM
- TGI (HS 578T breast): 61 µM
- TGI (SN12C renal): 37.8 µM
- TGI (CAKI-1 renal): 69.8 µM
- TGI (UACC-62 melanoma): 76 µM
- TGI (IGROV1 ovarian): 71.1 µM
- TGI (HCT-15 colon): 54.8 µM
- TGI (SW-620 colon): 70.1 µM
- TGI (SK-MEL-2 melanoma): 41.2 µM
- TGI (MDA-MB-231 breast): 36.9 µM
- TGI (UACC-257 melanoma): 39.4 µM
- TGI (OVCAR-8 ovarian): 48.2 µM
- TGI (RPMI-8226 leukemia): > 100 µM
- TGI (U251 CNS): 33.7 µM
- TGI (MOLT-4 leukemia): > 100 µM
- TGI (NCI-H23 lung): 40.3 µM
- TGI (SF-268 CNS): 36.7 µM
- TGI (KM12 colon): 46.1 µM
- TGI (LOX IMVI melanoma): 39.1 µM
- TGI (SNB-19 CNS): 49.7 µM
- TGI (BT-549 breast): 41.5 µM
- TGI (TK-10 renal): 41.5 µM
- TGI (OVCAR-3 ovarian): 36.4 µM
- TGI (HT29 colon): 30.2 µM
